Where a name gives a salt, the structure may show the parent alone.
Target: GST-Syk Full Protein (human) (Homo sapiens, UniProt P43405)
Assay: Syk kinase inhibition test (HTRF method)
Type: biochemical
Conditions: Tables 1-x, compounds A; read-out: sykHTRF ave IC50
Method: Syk Kinase Inhibition Test (HTRF Method)
After the compounds were serially diluted with dimethylsulfoxide (DMSO), 10 μL of those 10-fold diluted with kinase buffer (20 mM HEPES pH 7.0, 10 mM MgCl2, 50 mM NaCl, 1 mM 2-ME, 0.05% BSA) was added to opti-plate HTRF-96 (Packard) (final DMSO concentration: 2%). 20 μL of a substrate solution (kinase buffer as mentioned above containing Syk Specific-Peptide Substrate Biot-EDPDYEWPSA-NH2 (Peptide Laboratory) 625 nM, 250 μM ATP (SIGMA) was added (final substrate concentration 250 nM, 100 μM ATP), and further 20 μL of an enzyme solution (kinase buffer as mentioned above containing GST-Syk Full Protein (human) 16 nM) (final concentration 6.4 nM) was added and the mixture was immediately stirred with a plate shaker to start enzyme reaction. After reacted at room temperature (20 to 25° C.) for 30 minutes, the enzyme reaction was terminated by adding 100 μL/well of a buffer for terminating and detecting the reaction (30 mM HEPES pH 7.0, 150 mM KF, 0.15% BSA, 0.075% Tween-20, 75 mM EDTA) containing HTRF reagent (5 μg/ml XL665-Streptavidin (CIS bio), 170 ng/ml Eu(K)-anti-PhosphoTyrosin, PT-66 (CIS bio)) (final concentration 20 mM HEPES pH 7.0, 100 mM KF, 0.1% BSA, 0.05% Tween-20, 50 mM EDTA). After allowed to stand still at room temperature for 1 hour, inhibitory effect of a compound against Syk kinase enzymatic activity was evaluated by measuring 665/620 fluorescence ratio to excitation light at 337 nm by ARVO (Wallac).

| SMILES | IC50 [nM] |
| --- | --- |
| Cc1ccnc(Nc2cccc(-c3cnc(N4CCC[C@@H](c5nnn[nH]5)C4)s3)n2)c1 [Compound A-590, N-(4-methylpyridin-2-yl)-N-(6-{2-[(R)-3-(1H-tetrazol-5-yl)piperidin-1-yl]thiazol-5-yl}pyridin-2-yl)amine] | < 100 |
| Cc1ccnc(Nc2cccc(-c3cnc(CN4CCc5c(cccc5C(=O)O)C4)s3)n2)c1 [Compound A-608] | 100 to 1000 |
| Cc1ccnc(Nc2cccc(-c3cnc(COCC(=O)O)s3)n2)c1 [Compound A-615, {5-[6-(4-methylpyridin-2-ylamino)pyridin-2-yl]thiazol-2-ylmethoxy}acetic acid hydrochloride] | < 100 |
| Cc1ccnc(Nc2cccc(-c3cnc(N(C)c4ccc(/C=C/C(=O)O)cc4)s3)n2)c1 [Compound A-618] | 100 to 1000 |
| Cc1ccnc(Nc2cccc(-c3cnc(CSc4ccc(C(=O)O)cc4)s3)n2)c1 [Compound A-619] | 100 to 1000 |
| Cc1ccnc(Nc2cccc(-c3cnc(N4CCCc5ccc(C(=O)O)cc54)s3)n2)c1 [Compound A-621] | 100 to 1000 |
| Cc1ccnc(Nc2cccc(-c3cnc(N(Cc4ccccc4)C[C@H]4CC[C@H](C(=O)O)CC4)s3)n2)c1 [Compound A-622, trans-4-[(N-benzyl-N-{5-[6-(4-methylpyridin-2-ylamino)pyridin-2-yl]thiazol-2-yl}amino)methyl]cyclohexanecarboxylic acid] | < 100 |
| Cc1cc(C)nc(Nc2cccc(-c3cnc(N4CCC(CC(=O)O)CC4)s3)n2)c1 [Compound A-623] | 100 to 1000 |
| Cc1ccnc(Nc2cccc(-c3cnc(N(Cc4ccccc4)[C@H]4CC[C@H](CC(=O)O)CC4)s3)n2)c1 [Compound A-624, [trans-4-(N-benzyl-N-{5-[6-(4-methylpyridin-2-ylamino)pyridin-2-yl]thiazol-2-yl}amino)cyclohexyl]acetic acid] | < 100 |
| Cc1ccnc(Nc2cccc(-c3cnc(N(Cc4ccccc4)[C@H]4CC[C@@H](CC(=O)O)CC4)s3)n2)c1 [Compound A-625] | 100 to 1000 |
| Cc1ccnc(Nc2cccc(-c3cnc(N(C[C@H]4CC[C@H](C(=O)O)CC4)C(C)C)s3)n2)c1 [Compound A-626, trans-4-[(N-isopropyl-N-{5-[6-(4-methylpyridin-2-ylamino)pyridin-2-yl]thiazol-2-yl}amino)methyl]cyclohexanecarboxylic acid] | < 100 |
| Cc1ccnc(Nc2cccc(-c3cnc(N4CCCc5c(C(=O)O)cccc54)s3)n2)c1 [Compound A-627, 1-{5-[6-(4-methylpyridin-2-ylamino)pyridin-2-yl]thiazol-2-yl}-1,2,3,4-tetrahydroquinoline-5-carboxylic acid] | < 100 |
| Cc1cccc(Nc2cccc(-c3cnc(N4CCC(CC(=O)O)CC4)s3)n2)n1 [Compound A-628] | 100 to 1000 |
| Cc1ccc(Nc2cccc(-c3cnc(N4CCC(CC(=O)O)CC4)s3)n2)nc1 [Compound A-629] | 100 to 1000 |
| Cc1cccnc1Nc1cccc(-c2cnc(N3CCC(CC(=O)O)CC3)s2)n1 [Compound A-630] | 100 to 1000 |
| Cc1ccnc(Nc2cccc(-c3cnc(N4CCC(=C(F)C(=O)O)CC4)s3)n2)c1 [Compound A-631, fluoro-(1-{5-[6-(4-methylpyridin-2-ylamino)pyridin-2-yl]thiazol-2-yl}piperidin-4-ylidene)acetic acid] | < 100 |
| Cc1ccnc(Nc2cccc(-c3cnc(N(C)CCCCC(=O)O)s3)n2)c1 [Compound A-632, 5-(N-methyl-N-{5-[6-(4-methylpyridin-2-ylamino)pyridin-2-yl]thiazol-2-yl}amino)pentanoic acid] | < 100 |
| Cc1ccnc(Nc2cccc(-c3cnc(N4CCC(CC(=O)NS(C)(=O)=O)CC4)s3)n2)c1 [Compound A-633, N-[2-(1-{5-[6-(4-methylpyridin-2-ylamino)pyridin-2-yl]thiazol-2-yl}piperidin-4-yl)acetyl]methanesulfonamide] | < 100 |
| Cc1ccnc(Nc2cccc(-c3cnc(N(C)CCCC(=O)O)s3)n2)c1 [Compound A-634, 4-(N-methyl-N-{5-[6-(4-methylpyridin-2-ylamino)pyridin-2-yl]thiazol-2-yl}amino)butyric acid dihydrochloride] | < 100 |
| O=C(O)CC1CCN(c2ncc(-c3cccc(Nc4cc(C(F)(F)F)ccn4)n3)s2)CC1 [Compound A-635, (1-{5-[6-(4-trifluoromethylpyridin-2-ylamino)pyridin-2-yl]thiazol-2-yl}piperidin-4-yl)acetic acid dihydrochloride] | < 100 |
| O=C(O)CC1CCN(c2ncc(-c3cccc(Nc4ccc(Cl)cn4)n3)s2)CC1 [Compound A-636, (1-{5-[6-(5-chloropyridin-2-ylamino)pyridin-2-yl]thiazol-2-yl}piperidin-4-yl)acetic acid dihydrochloride] | < 100 |
| COc1ccnc(Nc2cccc(-c3cnc(N4CCC(CC(=O)O)CC4)s3)n2)c1 [Compound A-637, (1-{5-[6-(4-methoxypyridin-2-ylamino)pyridin-2-yl]thiazol-2-yl}piperidin-4-yl)acetic acid dihydrochloride] | < 100 |
| CN(c1ncc(-c2cccc(Nc3cc(C(F)(F)F)ccn3)n2)s1)[C@H]1CC[C@H](C(=O)O)CC1 [Compound A-638, trans-4-(N-methyl-N-{5-[6-(4-trifluoromethylpyridin-2-ylamino)pyridin-2-yl]thiazol-2-yl}amino)cyclohexanecarboxylic acid] | < 100 |
| Cc1ccnc(Nc2cccc(-c3cnc(N(C)c4ccc(CCC(=O)O)cc4)s3)n2)c1 [Compound A-639, 3-[4-(N-methyl-N-{5-[6-(4-methylpyridin-2-ylamino)pyridin-2-yl]thiazol-2-yl}amino)phenyl]propionic acid] | < 100 |
| Cc1ccnc(Nc2cccc(-c3cnc(N(C)CCC/C=C/C(=O)O)s3)n2)c1 [Compound A-640, (E)-6-(N-methyl-N-{5-[6-(4-methylpyridin-2-ylamino)pyridin-2-yl]thiazol-2-yl}amino)hex-2-enoic acid dihydrochloride] | < 100 |
| Cc1ccnc(Nc2cccc(-c3cnc(N4CCc5cc(CC(=O)O)ccc5C4)s3)n2)c1 [Compound A-641, (2-{5-[6-(4-methylpyridin-2-ylamino)pyridin-2-yl]thiazol-2-yl}-1,2,3,4-tetrahydroisoquinolin-6-yl)acetic acid] | < 100 |
| Cc1ccnc(Nc2cccc(-c3cnc(N4CCc5c(CCC(=O)O)cccc5C4)s3)n2)c1 [Compound A-642, 3-(2-{5-[6-(4-methylpyridin-2-ylamino)pyridin-2-yl]thiazol-2-yl}-1,2,3,4-tetrahydroisoquinolin-5-yl)propionic acid] | < 100 |
| Cc1ccnc(Nc2cccc(-c3cnc(N(CCCCC(=O)O)C(C)C)s3)n2)c1 [Compound A-643, 5-(N-isopropyl-N-{5-[6-(4-methylpyridin-2-ylamino)pyridin-2-yl]thiazol-2-yl}amino)pentanoic acid] | < 100 |
| Cc1ccnc(Nc2cccc(-c3cnc(NCCCCC(=O)O)s3)n2)c1 [Compound A-644, 5-{5-[6-(4-methylpyridin-2-ylamino)pyridin-2-yl]thiazol-2-ylamino}pentanoic acid] | < 100 |
| Cc1ccnc(Nc2cccc(-c3cnc(N(C)CCCCCC(=O)O)s3)n2)c1 [Compound A-645, 6-(N-methyl-N-{5-[6-(4-methylpyridin-2-ylamino)pyridin-2-yl]thiazol-2-yl}amino)hexanoic acid dihydrochloride] | < 100 |
